The results in this text go back to paper PMC9145865, “Effects of Rare Phytocannabinoids on the Endocannabinoid System of Human Keratinocytes” (International Journal of Molecular Sciences, 2022).

“Also recorded” adds a separate entry of the source.

The subject of assay [1] is GPR55. As to the kind of experiment: qRT-PCR gene expression of GPR55. In kind it is cell-based, human. Conditions: HaCaT cells, half-IC50 dose, 24 h, vs. control. The method, then: The HaCaT cells were seeded into 6-well plates at a density of 4 × 10^4 per well, incubated overnight and then treated with the selected pCBs (CBG (6.0 µM), CBC (4.0 µM), THCV (9.0 µM) and CBGA (13.0 µM)) for 24 h. The cell pellets were collected and RT-PCR reactions were performed using the RevertAid H Minus First Strand cDNA Synthesis Kit. The relative abundance was assessed via RT quantitative PCR (RT-qPCR) using the SensiFAST SYBR Lo-ROX Kit in an Applied Biosystems 7500 Fast Real-Time PCR System (Life Technologies). To provide the precise quantification of the initial target in each PCR reaction, the amplification plot was examined, as well as the point of early log phase of the product accumulation, which was defined by assigning a fluorescence threshold above the background that was defined as the threshold cycle number or “Ct. Differences” in threshold cycle number that was used to quantify the relative amount of the PCR targets that were contained within each tube. After PCR, a dissociation curve (melting curve) was constructed in the range of 60 °C to 95 °C [62] to evaluate the specificity of the amplification products. The relative expression of the different amplicons was calculated using the delta–delta Ct (ΔΔCt) method and then converted into the relative expression ratio (2^−ΔΔCt) for statistical analysis. All data were normalized to the endogenous reference genes β-actin and glyceraldehyde-3-phosphate dehydrogenase. The specific primers (Table 5) that were used were designed and ordered from Integrated DNA Technologies (IDT; Coralville, IA, USA) with the following sequences: […]
(In general: Real-time PCR tracks product formation cycle by cycle.)

Assay [2] relates to CB1/2. Kind of assay: Receptor binding assay on adherent living cells with [3H]CP 55,940. Also on record: species or system human. The conditions noted are these: HaCaT cells treated 24 h with half-IC50 amount; for total CB1/2 binding activity (in words): vs. control; for CB1/2 Binding Activity (pmol/mg of Protein): 2.5 nM [3H]CP 55,940, mean ± SEM, n = 3. Here is the method:
We also sought to investigate the effects of half-IC50 doses of pCBs on the functional activity of eCB-binding receptors (CB1/2 and TRPV1) and the AEA and 2-AG metabolizing enzymes (NAPE-PLD, FAAH, DAGLα/β and MAGL) when used to treat HaCaT cells for 24 h, for which an assay procedure was available. To this end, a CB1/2 ligand binding assay was performed using the radiolabeled synthetic cannabinoid [^3H]CP 55,940, which acts as a full agonist of both cannabinoid receptors with high and roughly equal affinity.
The HaCaT cells were seeded into 12-well plates at a density of 2 × 10^4 per well, incubated overnight and then treated with the selected pCBs (6.0 µM of CBG, 4.0 µM of CBC, 9.0 µM of THCV and 13.0 µM CBGA) for 24 h. Each well of the 12-well plates was washed twice with 1 mL of PBS and treated with 500 µL of incubation buffer (50 mM of Tris–HCl, 5 mM of MgCl2 and 1 mM of CaCl2; 0.2% BSA; pH 7.4), preheated to 37 °C and then incubated for 15 min at 37 °C. Then, 2.5 nM of [^3H]CP 55,940 was added and incubation occurred for 1 h in an incubator that was set at 37 °C. Afterward, the buffer was carefully removed and the cells were washed again with an ice-cold washing buffer (50 mM of Tris–HCl and 500 mM of NaCl; 0.1% BSA; pH 7.4). Unspecific binding was determined in the presence of 1 µM of synthetic agonist CP 55,940 [60]. Then, 500 µL of 0.5 M NaOH was added to each well and the cells were pipetted up and down several times in order to be lysed. The resuspension was then transferred to a 10-mL scintillation vial with a liquid scintillation cocktail and radioactivity was immediately read using a scintillation β-counter (Tri-Carb 2810 TR, Perkin Elmer, Waltham, MA, USA), as described in [40].

The test system of assay [3] is TRPV1. Kind of assay: TRPV1 calcium assay (capsaicin-triggered intracellular Ca2+ release). In kind it is cell-based, human. Conditions: HaCaT cells, half-IC50 amount, 24 h; capsaicin 1 µM; vs. control. The method, then: The effects of the pCBs on intracellular Ca^2+ release that was induced by TRPV1 activation was determined using the selective intracellular fluorescent probe Fluo-3 AM (Molecular probes, Eugene, OR, USA). The HaCaT cells (1 × 10^6 cells) were loaded for 15 min at 25 °C with 4 µM of Fluo-3 AM, which contained 0.02% Pluronic F-127 (Molecular probes) in an OPTIMEM medium, and then they were washed in the Tyrode’s buffer (145 mM of NaCl, 2.5 mM of KCl, 1.5 mM of CaCl2, 1.2 mM of MgCl2, 10 mM of D-glucose and 10 mM of HEPES; pH 7.4), resuspended in 2 mL of the Tyrode’s buffer and transferred into the quartz cuvette of the LS50B spectrofluorometer (Perkin Elmer, Waltham, MA, USA). Fluorescence was measured at 25 °C (excitation at λ = 488 nm; emission at λ = 516 nm) from the HaCaT cells, which had been pre-incubated with each pCB (6.0 µM of CBG, 4.0 of µM CBC, 9.0 µM of THCV and 13.0 µM of CBGA) and then stimulated with the selective TRPV1 agonist capsaicin (1 µM), as reported in [64]. The TRPV1-mediated intracellular Ca^2+ elevation was expressed as fluorescence intensity (arbitrary units, AU) per 10^6 cells.

The subject of assay [4] is DAGLα/β. As to the kind of experiment: DAGL α/β activity assay in membranes of treated cells. In kind it is cell-based, human. Conditions: HaCaT cells, half-IC50 amount, 24 h, vs. control. The method, then:
DAGL α/β Assay: The HaCaT cells were seeded into 6-well plates at a density of 4 × 10^4 per well, incubated overnight and then treated with the selected pCBs (6.0 µM of CBG, 4.0 µM of CBC, 9.0 µM of THCV and 13.0 µM of CBGA) for 24 h. The cell pellets were collected and DAGL α/β activity was determined using membranes that were isolated from these cells using the synthetic substrate p-nitrophenyl butyrate (pNPB) (8 mM) in 50 mM of HEPES pH 7.3 at room temperature for 20 min [68]. The DAGLα/β inhibitor KT172 (1 μM), which was purchased from Sigma-Aldrich (St. Louis, MO, USA), was used to fully erase the enzyme activity as a control.

`CCCCCc1cc(O)c2c(c1)OC(C)(CCC=C(C)C)C=C2` (stereo not drawn) [CBC, cannabichromene]: in assay [1], the “Gene Expression GPR55” value is “↓++++” and the “gene expression of GPR55 (in words)” value is reported as “reduced”. Also, in assay [2], the “total CB1/2 binding activity (in words)” value is recorded as “significantly increased” and the “CB1/2 Binding Activity (pmol/mg of Protein)” value is listed as 10.380 ± 0.750 pmol/mg of Protein. In addition, in assay [3], the “TRPV1 channel stimulation (intracellular Ca2+ release triggered by capsaicin)” value (“TRPV1 channel stimulation” for short) is reported as “significantly increased”. Further, in assay [4], the DAGLα/β activity result was “increased DAGLα/β activity remarkably”.
As to `CCCCCc1cc(O)c(C/C=C(\C)CCC=C(C)C)c(O)c1` [CBG, cannabigerol], in assay [2], the “total CB1/2 binding activity (in words)” value is listed as “significantly increased; also recorded: doubled” and the “CB1/2 Binding Activity (pmol/mg of Protein)” value was 8.027 ± 0.681 pmol/mg of Protein. The “TRPV1 channel stimulation” value in assay [3] is “significantly increased”. For the same compound, the DAGLα/β activity entry in assay [4] is listed as “increased DAGLα/β activity remarkably”.
For `CCCCCc1cc(O)c(C/C=C(\C)CCC=C(C)C)c(O)c1C(=O)O` [CBGA, cannabigerolic acid], in assay [1], the “Gene Expression GPR55” value is on record as “GPR55 ↑+++” and the “gene expression of GPR55 (in words)” value is given as “significant increase”. In assay [2], the “total CB1/2 binding activity (in words)” value is reported as “significantly increased” and the “CB1/2 Binding Activity (pmol/mg of Protein)” value is on record as 8.373 ± 0.410 pmol/mg of Protein. For the same compound, in assay [3], the “TRPV1 channel stimulation” value is on record as “significantly increased”.
Consider `CCCc1cc(O)c2c(c1)OC(C)(C)[C@@H]1CCC(C)=C[C@@H]21` [THCV, Δ^9-tetrahydrocannabivarin], for which, in assay [1], the “Gene Expression GPR55” value is recorded as “↑++++” and the “gene expression of GPR55 (in words)” value was “significant increase”. In addition, in assay [2], the “total CB1/2 binding activity (in words)” value is “significantly increased” and the “CB1/2 Binding Activity (pmol/mg of Protein)” value is on record as 8.187 ± 0.302 pmol/mg of Protein. The “TRPV1 channel stimulation” value in assay [3] is “significantly increased”. For the same compound, the DAGLα/β activity entry in assay [4] is “increased DAGLα/β activity remarkably”.
